Test results from patent publication US20160199369A1, “Extruded Immediate Release Abuse Deterrent Pill” (priority 2013, published 2016).

How the values were obtained:
[1] = relative solubility, yes/no; cited from earlier work
[2] = General solubility of exemplary components; assay type: physicochemical; settings: 200 proof ethanol, filtered through 0.22 micrometer PTFE filter
Excerpt: The following table lists the relative solubility of exemplary components of a formulation. A number of different dyes are listed along with their solubility information taken from the various literature sources and tested experimentally (200 proof ethanol and filtered through a 0.22 micrometer PTFE filter).

SMILES	Alcohol Solubility (Literature) [1]	Water Solubility [1]	Alcohol Solubility (tested) [2]
COc1ccc2c3c1O[C@H]1C(=O)CC[C@@]4(O)[C@@H](C2)N(C)CC[C@]314.Cl [Oxycodone HCl, reference compound]	Yes	Yes	–
O=C([O-])C1=NN(c2ccc(S(=O)(=O)[O-])cc2)C(=O)C1N=Nc1ccc(S(=O)(=O)[O-])cc1.[Na+].[Na+].[Na+] (stereo not shown) [FD&C Yellow #5]	Yes	Yes	Yes
O=C1/C(=C2\Nc3ccc(S(=O)(=O)[O-])cc3C2=O)Nc2ccc(S(=O)(=O)[O-])cc21.[Na+].[Na+] [FD&C Blue #2]	Yes	Yes	Yes
CCN(Cc1cccc(S(=O)(=O)[O-])c1)c1ccc(C(=C2C=CC(=[N+](CC)Cc3cccc(S(=O)(=O)[O-])c3)C=C2)c2ccccc2S(=O)(=O)[O-])cc1.[Na+].[Na+] [FD&C Blue #1]	Yes	Yes	–
COc1cc(S(=O)(=O)[O-])c(C)cc1N=Nc1c(O)ccc2cc(S(=O)(=O)[O-])ccc12.[Na+].[Na+] [FD&C Red #40]	Yes	Yes	Yes
